Reference: patent US8252768B2, “Designer therapy of pancreatic tumors” (University of Miami, priority 2006, dated 2012)

Tests used:
[1] = target: T1, cytidine deaminase (CD) (Homo sapiens, UniProt P32320); experiment: Competition assay for substrates of cytidine deaminase, crude extracts of PC-3 cells; assay type: biochemical; settings: competition studies, human tumor cell extracts
T1 construct: Crude extracts of PC-3 cells in culture were prepared as described above; endogenous in cells; host or cells: PC-3 cells (crude extract supernatant)
Experimental: (§1) The crude enzyme extract (the supernatant of a 10 minute 14,000×g centrifugation) was then added. When cytidine was used as substrate, assays were conducted with benzacyclouridine to inhibit uridine phosphorylases. […] After 0, 15, and 30 minutes, the reaction was stopped and denatured protein removed as above for dC Kinase. […] Aliquots were then spotted on PE cellulose TLC sheets and the reactants separated with a solvent system composed of isopropanol:HCl:H2O (170:41:39). […] The nucleosides were visualized under U.V. light and the spots cut out and counted. […] Enzyme activity was expressed as nmole formed in 30 min/mg/protein.
Competition assays to determine Substrate Specificity: Crude extracts of PC-3 cells in culture were prepared as described above. Two concentrations of crude extract were utilized for the studies as determined from the analysis of protein.
The assays were run for 0, 15, and 30 minutes.

[2] = test system: PC-3 cells; experiment: Cytotoxicity (clonogenic) assay, 72 h drug exposure; assay type: cell-based, human
Experimental: (§2) Toxicity and Radiation Studies: The methods using clonogenic assays described by Perez and Greer (Int. J. Rad. Oncology: Biology, Physics 12, 1523-1527, 1986—incorporated herein by reference in its entirety) were followed.
Cytotoxicity Assays: 5×10^5 cells were plated in 60 mm tissue culture dishes in 5 mls of the optimal growth media for the particular cell line in an humidified 95% air-5% CO2 atmosphere. The plates were incubated for 18-20 hours to allow for attachment and log-phase growth to begin. At the end of this period the growth medium was aspirated and replaced with […]. Four times (4×) concentrated solutions were prepared and then 1 ml was added to the plates; and growth media were then added to a total volume of […]. The plates were then incubated for 72 hours and the cells harvested by trypsinization. The cells were then serially diluted in growth medium replated into 60 mm dishes and incubated for 6 to 9 days depending on the cell line. After this incubation period, the media was aspirated and the colonies were washed twice with a PBS solution. The colonies were then stained with a 0.2% crystal violet-20% ethanol solution for 5 min. the stain was removed, the colonies were washed and air dried. A viable colony was one consisting of 25 or more normal appearing cells and was considered to have arisen from a single cell. The colonies were counted under a dissecting microscope. Two to three dilutions for every condition were plated. Dishes containing 30-300 colonies were used in the calculation and all conditions were done in duplicate.

[3] = test system: Lewis lung carcinoma; experiment: Mean day of death (T/C), Lewis lung carcinoma in mice; assay type: in vivo, BD2F1 mice
Experimental: ; The efficacy of the drug, F3methyldC followed the pattern of Selectivity. The mean day of death (Tumor/Control) was 1.3, 1.6, 1.8 and 1.4 for 10, 25, 50 and 75 mg/kg H4U, respectively. […].

[4] = test system: PC-3 cells; experiment: Radiosensitization of cells in culture (Cobalt 60, clonogenic survival); assay type: cell-based, human; settings: PC-3 cells
Experimental: as §2
Irradiation of Cells in Culture: 2×10^5 cells were plated in 25 cm^2 flasks and grown for 18 hr at 37° C. in a humidified 5% CO2 atmosphere. The medium was then removed and replaced with medium containing the appropriate drug concentrations and incubated for 72 hrs then removed and the cell monolayers were rinsed twice with PBS. The flasks were then filled with 50 ml of radiation medium (3 parts RPMI 1640 and 7 parts PBS plus antibiotics and glutamine). The cells were then irradiated using a Cobalt 60 irradiator. The cell monolayers were placed 35 cm away from the source and irradiated for appropriate times according to the dose rate. The dose rate was calculated, at this distance, using ionization chambers. Attenuation factors due to the polystyrene flask (0.9923) and the medium (H2O=0.8715) were considered in calculating the exposure period.
After irradiation the cell monolayers were washed again, replenished with growth media, and incubated for 1½ hours. The cell monolayers were then trypsinized and the cells serially diluted, appropriate dilutions were then plated in 60 mm dishes and incubated for 7-9 days at 37° C. and CO2. At the end of this period the cells were stained with crystal violet and the colony forming ability determined by considering 25 or more normal cells as a viable colony. The viabilities were determined and the appropriate survival curves derived. All conditions were done in duplicate using two flasks treated under identical conditions.

[5] = test system: mouse tumor; settings: in vivo; cited from earlier work
[6] = target: deoxycytidine kinase (dCK) (Homo sapiens, UniProt P27707); experiment: Competition assay for substrates of deoxycytidine kinase, crude extracts of PC-3 cells
[7] = target: T2, dCMP deaminase (Mus musculus, UniProt Q8K2D6); experiment: Inhibition of dCMP deaminase after H4U in mice bearing Lewis lung carcinoma; assay type: in vivo, BD2F1 mice; settings: mouse, in vivo
T2 construct: deaminase activity of tumor, serum and other tissues assayed 30 min after H4U; from tissue; host or cells: tumor (Lewis lung carcinoma), serum and other tissues of BD2F1 mice
T2 sequence (Q8K2D6 1-178): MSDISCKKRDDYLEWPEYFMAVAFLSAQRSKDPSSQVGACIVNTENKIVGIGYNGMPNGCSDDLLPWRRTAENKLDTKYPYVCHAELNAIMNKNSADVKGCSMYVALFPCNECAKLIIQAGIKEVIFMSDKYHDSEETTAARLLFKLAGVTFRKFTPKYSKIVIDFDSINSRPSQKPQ
Experimental: dCMP Deaminase Activity: The crude enzyme extract was prepared as described in A. The reaction was carried out in 60 mM Tris HCl, pH 8.0, and 50 μm dCTP, 2.5 mM MgCl2, 30 mM NaF, and 80% H2O to which dCMP (^3H labeled) was added to a final concentration of 2 mM; 20 μl of enzyme extract was added to initiate the reaction giving a total volume of […]. […] A control lacking enzyme was included with each determination. The reaction was terminated as described above in at 0, 30 and 45 minutes and denatured protein was removed by centrifugation as described above. To 10 μl of the supernatant, 6 μl of a 0.03M solution of the carrier nucleotides, dCMP and dUMP were added so that the reactants can be visualized under a UV lamp. Chromatographic isolation of the products was carried out in 2 different solvent systems: A) Baker DEAE Cellulose TLC sheets in 0.01N HCl for 35 min. […] Each appropriate area of the thin layer sheets (where dCMP and dUMP were separated), were cut into small pieces and placed in separate vials and extracted with 1N HCl (1 ml) for 30 minutes. Scintillation cocktail was added (5 ml) to the vials which were vortexed prior to counting. The specific activity was expressed as nmoles/min/mg protein.

[8] = target: T3, cytidine deaminase (Mus musculus, UniProt P56389); experiment: Inhibition of tissue cytidine deaminase in mice bearing mammary adenocarcinoma-755 (FIG. 6); assay type: in vivo, BD2F1 mice; settings: H4U 25 mg/kg or deoxytetrahydrouridine 100 mg/kg i.p.; 60 min
T3 construct: from tissue; host or cells: Lewis lung carcinoma, liver, spleen, intestine, bone marrow, kidney, skeletal muscle and serum of BD2F1 mice
Experimental: as §1

Sequence of deoxycytidine kinase (dCK) (P27707 whole entry): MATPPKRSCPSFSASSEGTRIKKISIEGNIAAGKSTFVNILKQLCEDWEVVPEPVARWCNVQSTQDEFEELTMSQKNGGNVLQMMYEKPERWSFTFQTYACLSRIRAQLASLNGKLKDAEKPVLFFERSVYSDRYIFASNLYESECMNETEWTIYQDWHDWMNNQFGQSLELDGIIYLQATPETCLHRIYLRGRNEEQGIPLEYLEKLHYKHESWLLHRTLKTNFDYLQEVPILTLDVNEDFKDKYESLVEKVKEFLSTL
T1 sequence (P32320 whole entry): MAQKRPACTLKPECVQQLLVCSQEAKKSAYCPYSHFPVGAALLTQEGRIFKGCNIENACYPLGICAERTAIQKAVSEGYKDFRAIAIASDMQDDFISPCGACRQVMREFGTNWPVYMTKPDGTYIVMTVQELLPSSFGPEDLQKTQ
T3 sequence (P56389 whole entry): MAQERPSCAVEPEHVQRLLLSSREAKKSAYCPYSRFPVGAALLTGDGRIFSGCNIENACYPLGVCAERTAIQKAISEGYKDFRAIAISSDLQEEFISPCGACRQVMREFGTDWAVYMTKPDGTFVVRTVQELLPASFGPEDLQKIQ

Structure (SMILES) | substrate for cytidine deaminase (in words) [1] | effect of thymidine on cytotoxicity (in words) [2] | effect of tetrahydrouridine (H4U) on cytotoxicity / viability (in words) ([2]; human, 72 h) | % S ([2]; nucleoside 1 μM, H4U 5 μM) [%] | % S ([2]; nucleoside 1 μM, H4U 100 μM) [%] | % S ([2]; nucleoside 1 μM, H4U 1500 μM) [%] | % S ([2]; nucleoside 10 μM, H4U 5 μM) [%] | % S ([2]; nucleoside 10 μM, H4U 100 μM) [%] | % S ([2]; nucleoside 10 μM, H4U 1500 μM) [%] | MDD T/C (mean day of death) ([3]; H4U 10 mg/kg with F3methyldC) | MDD T/C (mean day of death) ([3]; H4U 25 mg/kg with F3methyldC, mean ± SE) | MDD T/C (mean day of death) ([3]; H4U 50 mg/kg with F3methyldC, mean ± SE) | MDD T/C (mean day of death) ([3]; H4U 75 mg/kg with F3methyldC) | radiosensitization of PC-3 cells (in words) [4] | efficacy vs a mouse tumor compared with other fluorinated pyrimidines (in words) [5] | substrate for deoxycytidine kinase (in words) ([6]; competition studies, human tumor cell extracts) | inhibition at 250 µM ([6]; read-out: % Inhibition (dCK)) [%] | selective inhibition of dCMP deaminase of normal tissue (in words) [7] | selectivity of inhibition: tumor CD vs CD of normal tissues (in words) [8]
Nc1nc(=O)n([C@H]2C[C@H](O)[C@@H](CO)O2)cc1C(F)(F)F [5-TrifluoromethyldC, 5-Trifluoromethyl-2′-deoxycytidine] | reasonably good substrate | antagonized by thymidine | can be antagonized by H4U | 67 | 100 | 100 | 0.1 | 2 | 3.3 | 1.3 | 1.6 | 1.8 | 1.4 | not a radiosensitizer | superior to 5-FUra, 5-FdU and 5-F3dT | poor substrate | 0 |  | 
O=C1NC(O)CCN1[C@H]1C[C@H](O)[C@@H](CO)O1 (stereo partly shown) [Deoxytetrahydrouridine] |  |  |  |  |  |  |  |  |  |  |  |  |  |  |  |  |  | not selectively inhibited | did not display a selective inhibition
